The structures appear in SMILES notation.

For test [1], the system named is MDA-MB-231. The test is described as follows: drug sensitivity score (DSS); higher = more sensitive; extreme values may be limits of the assay. The note with it: incubation time: 72 h. How it is done:
(§1)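 MDA-MB-231 breast cancer cells were transfected with siBRCA1 or non-targeting siControl, then seeded 24 h later at 4000 cells/well in 384-well plates holding 198 drugs at 5 concentrations. Viability was read by CellTiter-Blue after 72 h at 37 °C. Dose-response curves were fitted in Dotmatics to give IC50 and a drug sensitivity score (DSS: area under the curve relative to the area between the 10% threshold and 100% inhibition, normalised by the log of the top response). The dose range is not stated. IC50 values of 8333.3 or 4166.7 nM mark no response (top dose), and 0.8333 nM is the lower limit.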

Test [2] concerns MDA-MB-231. The note with it: incubation time: 72 h. The protocol: as §1
[3] abbreviates: siRNA: siControl (non-targeting).

On to `COc1cc([C@@H]2c3cc4c(cc3[C@@H](O[C@@H]3O[C@@H]5CO[C@@H](c6cccs6)O[C@H]5[C@H](O)[C@H]3O)[C@H]3COC(=O)[C@H]23)OCO4)cc(OC)c1O` [Teniposide], for which the values for the drug sensitivity score in test [1] (siRNA: siBRCA1) and in test [1] (setting [3]) were 5.24 and 7.09, respectively. Moreover, the “IC50 of cell viability” value in test [2] (siRNA: siBRCA1) is 2840 nM; in test [2] (setting [3]), 1980 nM.

In the case of `COc1cc2/c(=N/c3ccc(Br)cc3F)nc[nH]c2cc1OCC1CCN(C)CC1` [Vandetanib], the drug sensitivity score in test [1] (siRNA: siBRCA1) is 7.31; in test [1] (setting [3]), 7.25. The results for the “IC50 of cell viability” value in test [2] (siRNA: siBRCA1) and in test [2] (setting [3]) were 1850 nM and 1860 nM, respectively.

With `COc1cc([C@@H]2c3cc4c(cc3[C@@H](O[C@@H]3O[C@@H]5CO[C@@H](C)O[C@H]5[C@H](O)[C@H]3O)[C@H]3COC(=O)[C@H]23)OCO4)cc(OC)c1O` [Etoposide], the drug sensitivity score in test [1] (siRNA: siBRCA1) came out at 10; in test [1] (setting [3]) it was 2.9. Moreover, the figures for the “IC50 of cell viability” value in test [2] (siRNA: siBRCA1) and in test [2] (setting [3]) were 91.9 nM and greater than 4170 nM, respectively.

As for `CO[C@H]1/C=C\C=C(/C)C(=O)NC2=CC(=O)C(NCCN(C)C)=C(C[C@@H](C)C[C@H](OC)[C@H](O)[C@@H](C)/C=C(\C)[C@@H]1OC(N)=O)C2=O` [Alvespimycin], the drug sensitivity score came to 20 in test [1] (siRNA: siBRCA1) and 22.7 in test [1] (setting [3]). The figures for the “IC50 of cell viability” value in test [2] (siRNA: siBRCA1) and in test [2] (setting [3]) were 128 nM and 75.7 nM, respectively.

Turning to `Oc1ncnc2[nH]ncc12` [Allopurinol], the drug sensitivity score in test [1] (siRNA: siBRCA1) and in test [1] (setting [3]) was 0 in each case. The “IC50 of cell viability” value in test [2] (siRNA: siBRCA1) and in test [2] (setting [3]) was greater than 4170 nM each time.

Consider `Nc1nc(Cl)nc2c1ncn2[C@H]1C[C@H](O)[C@@H](CO)O1` [Cladribine], for which the drug sensitivity score in test [1] (siRNA: siBRCA1) was 5.2; in test [1] (setting [3]), 9.09. The “IC50 of cell viability” value in test [2] (siRNA: siBRCA1) was 2880 nM; in test [2] (setting [3]), 91.8 nM.

With `C/C(=C\c1csc(C)n1)[C@@H]1C[C@@H]2O[C@]2(C)CCC[C@H](C)[C@H](O)[C@@H](C)C(=O)C(C)(C)[C@@H](O)CC(=O)N1` [Ixabepilone], the figures for the drug sensitivity score in test [1] (siRNA: siBRCA1) and in test [1] (setting [3]) were 14.8 and 16.2, respectively. For the same compound, the “IC50 of cell viability” value amounted to 249 nM in test [2] (siRNA: siBRCA1) and 251 nM in test [2] (setting [3]).

Turning to `CN(C)c1nc(N(C)C)nc(N(C)C)n1` [Altretamine], the drug sensitivity score in test [1] (siRNA: siBRCA1) and in test [1] (setting [3]) was 0 throughout. In addition, the “IC50 of cell viability” value in test [2] (siRNA: siBRCA1) and in test [2] (setting [3]) was greater than 4170 nM each time.

Turning to `O=P1(N(CCCl)CCCl)NCCCO1` (centres undefined) [Cyclophosphamide], the drug sensitivity score is 0.0343 in test [1] (siRNA: siBRCA1) and 0 in test [1] (setting [3]). Further, the “IC50 of cell viability” value in test [2] (siRNA: siBRCA1) and in test [2] (setting [3]) was greater than 4170 nM throughout.

Consider `Cc1nc(Nc2ncc(C(=O)Nc3c(C)cccc3Cl)s2)cc(N2CCN(CCO)CC2)n1` [Dasatinib], for which the drug sensitivity score in test [1] (siRNA: siBRCA1) and in test [1] (setting [3]) was 27 throughout. For the same compound, the “IC50 of cell viability” value in test [2] (siRNA: siBRCA1) is 11 nM; in test [2] (setting [3]) it was 11.3 nM.

As for `S=c1[nH]cnc2nc[nH]c12` [Mercaptopurine], the values for the drug sensitivity score in test [1] (siRNA: siBRCA1) and in test [1] (setting [3]) were 0 and 4.58, respectively. Also, the “IC50 of cell viability” value in test [2] (siRNA: siBRCA1) was greater than 4170 nM; in test [2] (setting [3]) it was 991 nM.

Regarding `CS(=O)(=O)c1ccc(C(=O)Nc2ccc(Cl)c(-c3ccccn3)c2)c(Cl)c1` [Vismodegib], the drug sensitivity score in test [1] (siRNA: siBRCA1) and in test [1] (setting [3]) was 0 throughout. The “IC50 of cell viability” value in test [2] (siRNA: siBRCA1) and in test [2] (setting [3]) was greater than 4170 nM each time.

As to `CN(Cc1cnc2nc(N)nc(N)c2n1)c1ccc(C(=O)N[C@@H](CCC(=O)O)C(=O)O)cc1` [Methotrexate], the drug sensitivity score in test [1] (siRNA: siBRCA1) is 0; in test [1] (setting [3]), 9.3. Further, the “IC50 of cell viability” value in test [2] (siRNA: siBRCA1) is greater than 4170 nM; in test [2] (setting [3]) it was 4.32 nM.

For `Cc1ccc(C(=O)Nc2ccc(CN3CCN(C)CC3)c(C(F)(F)F)c2)cc1C#Cc1cnc2cccnn12` [Ponatinib], the drug sensitivity score in test [1] (siRNA: siBRCA1) is 16; in test [1] (setting [3]), 15.4. For the same compound, the figures for the “IC50 of cell viability” value in test [2] (siRNA: siBRCA1) and in test [2] (setting [3]) were 297 nM and 363 nM, respectively.

Take `Nc1ncn([C@@H]2O[C@H](CO)[C@@H](O)[C@H]2O)c(=O)n1` [Azacitidine]: the drug sensitivity score in test [1] (siRNA: siBRCA1) and in test [1] (setting [3]) was 0 in each case. Moreover, the “IC50 of cell viability” value in test [2] (siRNA: siBRCA1) and in test [2] (setting [3]) was greater than 4170 nM each time.

For the compound `OC[C@H]1O[C@@H](n2cnc3c2N=CNC[C@H]3O)C[C@@H]1O` [Pentostatin], the drug sensitivity score in test [1] (siRNA: siBRCA1) and in test [1] (setting [3]) was 0 each time. The “IC50 of cell viability” value in test [2] (siRNA: siBRCA1) and in test [2] (setting [3]) was greater than 4170 nM throughout.

The values above are taken from the supplement of paper PMC4649846.
